This note sets out measurements from patent US4393210A, “1(2H)-Isoquinolone compounds and acid addition salts thereof” (Seiyaku Co., Ltd., priority 1980, dated 1983).

Counter-ions that a name gives are not always drawn.

In series [1] the test system is indomethacin-induced ulcer. Briefly: Anti-ulcer activity, indomethacin-induced ulcer. Conditions: for Percent Inhibition (indomethacin ulcer) / Ulcerous Index: oral; for Ulcerous Index: control 15.4, indomethacin 20 mg/kg s.c. The format is in vivo, Wister male rats. The procedure:
A suspension of indomechacin in 0.25% CMC was administered subcutaneously at a dose of 20 mg/kg to Wister male rats (body weight, 125 to 150 g) fasted for 24 hours. The test compound was administered orally 30 minutes before the administration of indomethacin. Seven hours after the administration of indomethacin, the rats were sacrificed by dislocation of neck, and the stomach was extracted. 7.5 ml of 1% formalin solution was injected into the stomach cavity, and the stomack was hardened. The linear-type ulcer generated in the mucous membrane of the stomach was then observed.

Series [2] can be described thus: Acute toxicity. Conditions: mouse, in vivo; mice fasted overnight, observed for 7 days; route not stated. The procedure: The test compound was administered to ddy male mice (body weight, 20 to 25 g) fasted overnight before administration.
In series [3] the test system is contraction induced by acetylchloline, ileum of guinea pig. Kind of series: Anti-cholinergic activity, acetylcholine-induced contraction of extracted ileum (Magnus tube). Conditions: 31° C. The procedure:
(§1) The ileum of guinea pig (body weight, 300 to 400 g) was extracted and suspended in a Magnus tobe containing Tyrode's solution (saturated with oxygen) at 31° C. and the inhibitory activity of the test compounds on the contraction induced by administration of histamine or acetylchloline was determined. The treatment with the test compounds was conducted 30 seconds before inducing the contraction.

Series [4] concerns histamine-induced contraction, guinea pig ileum. Kind of series: Anti-histamine activity, histamine-induced contraction of extracted ileum (Magnus tube). Conditions: 31° C.; for shift of histamine-induced contraction curve: treatment 30 seconds before inducing contraction; for anti-histamine activity: guinea pig ileum. The procedure:
as §1

Series [5] concerns ulcer generation caused by water-dipping restriction stress. Briefly: Anti-ulcer activity, stress ulcer (water-dipping restriction stress). Particulars: for Percent Inhibition (stress ulcer) / Ulcerous Index: oral; for Ulcerous Index: n=6, control 75.8. The format is in vivo, Wister male rats. Here is the method: The test compound was administered orally to Wister male rats (body weight, 200 to 230 g) and then the rats were tied up with a steel wire and dipped in water at 23° C. in a tank to the level of the xiphisternum of rats. After allowing the rats to stand for 7 hours in water, the rats were sacrificed and the stomach was extracted. 10 ml of a 1% formalin solution was injected into the stomach cavity and the stomach was dipped in a 1% formalin solution for 15 minutes to semi-harden the stomach. The stomach was excised along the greater curvature thereof and the ulcer generated in the portion of corpus ventriculi was observed.

For series [6], the system named is pain reaction induced by acetic acid injection. Briefly: Analgesic activity, acetic acid stretching method (Koster et al). The format is in vivo, ddy male mice. Particulars: oral; for Number of Stretching: n=8, control 36.5 ± 6.5. Here is the method:
According to the acetic acid stretching method described by Koster et al [Fed. Pro., 18, 412 (1959)], Compound A was administered orally to ddy male mice (body weight, 20 to 25 g) fasted overnight before test. One hour after administration of Compound A, a 0.6% aqueous acetic acid solution was administered intraperitoneally at a dose of 0.35 ml per mouse and the stretching of the mice was observed 10 minutes after the administration of the acetic acid solution for a period of 10 minutes, and the percent inhibition was calculated.

Series [7] has as its system gastric secretion. Briefly: Gastric secretion inhibitory activity, pylorus ligation. The format is in vivo, Wister male rats. Conditions: for pH Value (gastric juice) / Amount of Gastric Juice / Amount of Output Secretion: 4 hours, n=10; for pH Value (gastric juice): control 1.71 ± 0.11; for Amount of Gastric Juice: control 2.51 ± 0.32; for Amount of Gastric Juice / Amount of Output Secretion: **p < 0.01; for Amount of Output Secretion: control 184 ± 27.2; for effect on volume of gastric juice, acid secretion and pH value: Table 2, 100 mg/kg. The procedure:
The pylorus of Wister male rats (body weight, 180 to 200 g) fasted for 24 hours was ligated under ether anesthesia and, immediately thereafter, the test compound was administered into the duodenum. Four hours after the administration, the stomach was extracted and gastric juice was collected and centrifuged at 3,000 r.p.m. for 15 minutes. The volume of gastric juice, the pH value and the amount of output secretion were then determined with respect to the supernatant.

Series [8] relates to decrease in body temperature induced by administration of reserpine. Briefly: Anti-reserpine (anti-depression) activity, rectal temperature. Particulars: oral, 50 and 100 mg/kg; reserpine 2 mg/kg s.c. twice. The format is in vivo, ddy male mice. The procedure:
Reserpine was administered subcutaneously to ddy male mice (body weight, 25 to 30 g) at a dose of 2 mg/kg and, after fasting for 18 hours, reserpine was again administered subcutaneously at a dose of 2 mg/kg. Five hours after the second administration of reserpine, the mice which indicated a constant decrease in body temperature were selected and administered orally with the test compound (Compound C), followed by measuring the rectal temperature of the mice at one hour intervals.
In this experiment, Imipramine (10,11-dihydro-N,N-dimethyl-5H-dibenz[b,f]azepine-5-propanamine) and Amitriptyline [3-(10,11-dihydro-5H-dibenzo[a,d]-cyclohepten-5-ylidene)-N,N-dimethyl-1-propanamine] were used as typical examples of known compounds for comparison and the results obtained with these compounds are also shown in FIG. 1(a).

[9] abbreviates: 100 mg/kg into the duodenum, *p < 0.05.

For orientation: LD50 means the dose at which mortality reaches 50%. For the molecule `CC(Cn1cc(-c2ccccc2)c2ccccc2c1=O)N(C)C` (stereo not drawn) [Compound D, 2-(2-N,N-dimethylaminopropyl)-4-phenyl-1(2H)-isoquinolone maleate], in series [1] (50 mg/kg), the “inhibition of indomethacin-induced ulcer” value is given as “inhibit the indomethacin-induced ulcer” and the “Percent Inhibition (indomethacin ulcer)” value was 73.0%. In addition, the “Ulcerous Index” value in series [1] (50 mg/kg, n=8) came out at 4.1 mm. The molecule further gave an LD50 at 168 h in series [2] of 505 mg/kg.
Take `CN(C)CCCn1cc(-c2ccccc2)c2ccccc2c1=O` [Compound A, 2-(3-N,N-dimethylaminopropyl)-4-phenyl-1(2H)-isoquinolone tartrate]: the anti-cholinergic activity result in series [3] was “non-specific anti-cholinergic activity”. In addition, the “shift of histamine-induced contraction curve” value (“shift” for short) in series [4] is given as “shift the hitamine-induced contraction curve determined in guinea pig ileum to the right direction on the figures in parallel”. In addition, in series [4], the anti-histamine activity result is listed as “possess a specific anti-histamine activity”. The “inhibition of ulcer generation caused by water-dipping restriction stress” value in series [5] (dose of 25, 50 and 100 mg) is given as “inhibits the ulcer generation caused by water-dipping restriction stress”. The “Percent Inhibition (stress ulcer)” value in series [5] (25 mg/kg) came out at 23.5%; in series [5] (50 mg/kg), 36.4%; in series [5] (100 mg/kg), 66.0%. Further, the “Ulcerous Index” value is recorded as 58.0 mm in series [5] (25 mg/kg), 48.2 mm in series [5] (50 mg/kg) and 25.3 mm in series [5] (100 mg/kg). In addition, the “Number of Stretching” value was 33.8 ± 8.2 in series [6] (25 mg/kg); 16.9 ± 4.8 in series [6] (50 mg/kg, *p < 0.05); 10.0 ± 2.8 in series [6] (100 mg/kg, **p < 0.01). Besides, the “Percent Inhibition (stretching)” value was 53.7% in series [6] (50 mg/kg) and 72.6% in series [6] (100 mg/kg). For the same molecule, the “inhibition of the pain reaction induced by acetic acid injection” value in series [6] (50 and 100 mg/kg) is listed as “inhibited the pain reaction induced by acetic acid injection”. Moreover, the “pH Value (gastric juice)” value in series [7] (setting [9]) was 3.06 ± 0.44. Also, the “Amount of Gastric Juice” value in series [7] (100 mg/kg into the duodenum) came to 0.53 ± 0.12 mL. Besides, the “Amount of Output Secretion” value in series [7] (100 mg/kg into the duodenum) amounted to 22 ± 5.9 μ Eq. In addition, the “effect on volume of gastric juice, acid secretion and pH value” in series [7] is “reduce the volume of gastric juice and the acid secretion and increase the pH value”. This molecule showed a 50% lethal dose (LD50) at 168 h in series [2] of 662 mg/kg.
Take `CCN1CCCC1CNC(=O)c1cc(S(N)(=O)=O)ccc1OC` (stereo not drawn) [Sulpiride, 5(aminosulfonyl)-N--(1ethyl-2-pyrrolidinyl)-methyl 2-methoxybenzamide, reference compound]: the “Ulcerous Index” value in series [5] (100 mg/kg) is 71.0 mm.
As to `CN1[C@@H]2CC[C@H]1C[C@@H](OC(=O)C(CO)c1ccccc1)C2` (stereo partly drawn) [Atropine, reference compound], in series [5] (5 mg/kg), the “Percent Inhibition (stress ulcer)” value amounted to 93.0% and the “Ulcerous Index” value is reported as 5.3 mm. Also, in series [7] (5 mg/kg into the duodenum), the “pH Value (gastric juice)” value is given as 2.22 ± 0.25, the “Amount of Gastric Juice” value was 0.90 ± 0.09 mL and the “Amount of Output Secretion” value is 57 ± 6.0 μ Eq.
Take `CN(C)CCCn1cc(C#N)c2ccccc2c1=O` [Compound C, 4-cyano-2-(3-N,N-dimethylaminopropyl)-1(2H)-isoquinolone tartrate 1/2 hydrate]: in series [4], the “shift” value was “shift the hitamine-induced contraction curve determined in guinea pig ileum to the right direction on the figures in parallel” and the anti-histamine activity entry is “possess a specific anti-histamine activity”. Moreover, in series [8], the “rectal temperature decreased by pretreatment with reserpine” value is “increases at a dose of 50 and 100 mg/kg significantly the rectal temperature”. In addition, in series [7] (setting [9]), the “pH Value (gastric juice)” value came to 1.88 ± 0.10. In series [7] (100 mg/kg into the duodenum), the “Amount of Gastric Juice” value was determined as 1.85 ± 0.35 mL and the “Amount of Output Secretion” value is on record as 72 ± 5.3 μ Eq. In series [7], the “effect on volume of gastric juice, acid secretion and pH value” is “reduce the volume of gastric juice and the acid secretion and increase the pH value”. The same molecule returned a 50% lethal dose (LD50) at 168 h in series [2] of 699 mg/kg.
In the case of `CN(C)CCn1cc(-c2ccccc2)c2ccccc2c1=O` [Compound B, 2-(2-N,N-dimethylaminoethyl)-4-phenyl-1(2H)-isoquinolone hydrochloride], in series [3], the anti-cholinergic activity entry is “non-specific anti-cholinergic activity”. For the same molecule, in series [4], the “shift” value was “shift the hitamine-induced contraction curve determined in guinea pig ileum to the right direction on the figures in parallel” and the anti-histamine activity entry was “possess a specific anti-histamine activity”. Further, in series [1] (50 mg/kg), the “inhibition of indomethacin-induced ulcer” value is “inhibit the indomethacin-induced ulcer” and the “Percent Inhibition (indomethacin ulcer)” value was determined as 61.0%. Moreover, the “Ulcerous Index” value in series [1] (50 mg/kg, n=8) was 6.0 mm. This molecule gave a 50% lethal dose (LD50) at 168 h in series [2] of 195 mg/kg.
For “basic aluminum sucrose sulfate [Sucralfate, reference compound]”, in series [1] (300 mg/kg), the “Percent Inhibition (indomethacin ulcer)” value is 81.1% and the “Ulcerous Index” value was 2.9 mm.
